# Measurements published in patent US9896512B2, “Antitumor peptide derived from a complementarity determining region of a humanized monoclonal antibody to NAP12B transporter” (Recepta Biopharma S.A., priority 2010, dated 2018).
# No end group written: not given here.
# Tests used:
# B16F10-Nex2 cells = assay: Tumor cell invasion through Matrigel (Transwell); type: cell-based, murine; parameters: inhibition of cell invasion: dose or concentration left out as unconfirmed; conditions: 24 hours
# Experimental: […] As a chemoattractant, 10% FCS in RPMI was used in the transwell lower chamber. After 24 hours at 37° C. in humidified atmosphere with 5% CO2, non-invasive cells were excluded with a swab, and cells that crossed the membrane were fixed with methanol and stained with Giemsa. Cells were counted in each transwell membrane, and the numbers of invasive cells are expressed as percentages.
# [1] = test system: melanoma B16F10-Nex2 cells; assay: Alanine scanning series cell adhesion assay (MTT after trypsin-EDTA); type: cell-based, murine; conditions: 1 mM peptide, 24 hours
# Experimental: The peptide RB10 (SEQ ID NO: 9) was engineered to replace each amino acid by alanine using Ala-scan methodology, and thus help evaluate the role of each amino acid on biological effect, specifically on the hyper-adherence observed with 1 mM peptide.
# For this purpose, viable melanoma B16F10-Nex2 cells (1×10^4)/well were distributed on a 96-well culture plate and incubated for 4 hours. Fresh media containing 1 mM of the alanine-scanning series for RB10 was added and incubated for 24 hours. Treated cells were detached with 30 μl/well of trypsin-EDTA for five minutes at 37° C. and gently washed with PBS. Cells were incubated for 4 hours with 0.5 mg/mL of MTT [3-(4,5-Dimethylthiazol-2-yl)-2,5-diphenyltetrazolium bromide] in fresh media and the formazan crystals were solubilized adding 1 volume of a 10% SDS solution overnight. Intensity was measured using a plate reader at 570 nm. […] The 100% value for each peptide represented the treated cells that had not been trypsinized.
Molecule,inhibition of cell invasion (B16F10-Nex2 cells) [%],"inhibition of cell invasion through Matrigel, dose dependence (B16F10-Nex2 cells; 10% FCS chemoattractant)",trypsin/EDTA-resistant cell adherence [1]
"C[C@@H]1NC(=O)[C@H](CCCNC(=N)N)NC(=O)[C@H](C)NC(=O)[C@H]([C@@H](C)O)NC(=O)[C@H](CCC(=O)O)NC(=O)CNC(=O)[C@H](CCCNC(=N)N)NC(=O)[C@H](C)NC(=O)[C@@H](N)CSSC[C@@H](C(N)=O)NC(=O)CNC(=O)[C@H](CCC(N)=O)NC(=O)CNC(=O)[C@H](Cc2c[nH]c3ccccc23)NC(=O)[C@H](Cc2ccc(O)cc2)NC(=O)[C@H](C)NC(=O)[C@H](Cc2ccccc2)NC(=O)[C@H]([C@@H](C)O)NC1=O [RB9, CARGETARATFAYWGQGC-NH2]",60,dose-dependent inhibition,–
"CARGETARATFAYWGQG-NH2 [RB10, CARGETARATFAYWGQG-NH2]",–,–,high trypsin/EDTA-resistant cell adherence
